Broadly, the chromatographic logP is lipophilicity estimated from chromatographic retention.

This data set is described as follows: logP determination by retention times (calibration with alkan-2-ones). To be noted: * HPLC reversed-phase C18, 40° C., mobile phase 0.1% aqueous formic acid and acetonitrile, linear gradient 10% to 95% acetonitrile.

In turn, `COCc1nc(C)c(-c2ccnc(Nc3ccc(CNC(=O)OC(C)(C)C)cc3)n2)s1` [Example 643, tert-butyl-[4-({4-[2-(methoxymethyl)-4-methyl-1,3-thiazol-5-yl]pyrimidin-2-yl}amino)benzyl]carbamate] came in with a chromatographic logP of 2.99.

`COC(=O)Nc1ccc(Nc2nccc(-c3sc(N)nc3C)n2)cc1` [Example 656, methyl-(4-{[4-(2-amino-4-methyl-1,3-thiazol-5-yl)pyrimidin-2-yl]amino}phenyl)carbamate] displayed a chromatographic logP of 1.31.

`COCC(C)Nc1nc(C)c(-c2ccnc(Nc3ccc(NS(C)(=O)=O)cc3)n2)s1` (stereo not drawn) [Example 657, N-{4-[(4-{2-[(2-methoxy-1-methylethyl)amino]-4-methyl-1,3-thiazol-5-yl}pyrimidin-2-yl)amino]phenyl}methanesulphonamide]: the chromatographic logP is 1.53.

As to `CNc1nc(C)c(-c2ccnc(Nc3cccc(CNC(=O)OC(C)(C)C)c3)n2)s1` [Example 658, tert-butyl-[3-({4-[4-methyl-2-(methylamine)-1,3-thiazol-5-yl]pyrimidin-2-yl}amino)benzyl]carbamate], the logP is given as 1.99*.

In the case of `CC(=O)c1cccc(N(C(C)=O)c2nccc(-c3sc(C4CC4)nc3C)n2)c1` [Example 665, N-(3-acetylphenyl)-N-[4-(2-cyclopropyl-4-methyl-1,3-thiazol-5-yl)pyrimidin-2-yl]acetamide], the chromatographic logP worked out at 2.43.

`COc1cc(N(C(C)=O)c2nccc(-c3sc(C(C)C)nc3C)n2)cc(OC)c1OC` [Example 666, N-[4-(2-isopropyl-4-methyl-1,3-thiazol-5-yl)pyrimidin-2-yl]-N-(3,4,5-trimethoxyphenyl)acetamide] registered a chromatographic logP of 2.53.

As to `COc1cc(N(C(C)=O)c2nccc(-c3sc(C)nc3C)n2)cc(OC)c1OC` [Example 667, N-[4-(2,4-dimethyl-1,3-thiazol-5-yl)pyrimidin-2-yl]-N-(3,4,5-trimethoxyphenyl)acetamide], the chromatographic logP was 1.9.

The molecule `CCc1nc(C)c(-c2ccnc(N(C(C)=O)c3ccccc3)n2)s1` [Example 668, N-[4-(2-ethyl-4-methyl-1,3-thiazol-5-yl)pyrimidin-2-yl]-N-phenylacetamide] returned a chromatographic logP of 2.33.

For `CCc1nc(C)c(-c2ccnc(N(C(C)=O)c3cc(OC)c(OC)c(OC)c3)n2)s1` [Example 669, N-[4-(2-ethyl-4-methyl-1,3-thiazol-5-yl)pyrimidin-2-yl]-N-(3,4,5-trimethoxyphenyl)acetamide], the chromatographic logP came to 2.19.

On to `CCc1nc(C)c(-c2ccnc(N(C(C)=O)c3cccc(C(C)=O)c3)n2)s1` [Example 671, N-(3-acetylphenyl)-N-[4-(2-ethyl-4-methyl-1,3-thiazol-5-yl)pyrimidin-2-yl]acetamide], for which the chromatographic logP worked out at 2.23.

As to `COC(=O)Nc1ccc(Nc2nccc(-c3sc(C4CC4)nc3C)n2)cc1` [Example 672, methyl-(4-{[4-(2-cyclopropyl-4-methyl-1,3-thiazol-5-yl)pyrimidin-2-yl]amino}phenyl)carbamate], the chromatographic logP was determined as 2.51.

In turn, `Cc1nc(C)c(-c2ccnc(Nc3ccc(N(C)C)c(Cl)c3)n2)s1` [Example 674, 2-chloro-N4-[4-(2,4-dimethyl-1,3-thiazol-5-yl)pyrimidin-2-yl]-N1,N1-dimethylbenzene-1,4-diamine] registered a chromatographic logP of 2.

Turning to `COCCNc1nc(C)c(-c2ccnc(Nc3ccc(F)cc3)n2)s1` [Example 677, N-(4-fluorophenyl)-4-{2-[(2-methoxyethyl)amino]-4-methyl-1,3-thiazol-5-yl}pyrimidine-2-amine], the chromatographic logP is 1.9.

On to `COCCNc1nc(C)c(-c2ccnc(Nc3ccccc3)n2)s1` [Example 678, 4-{2-[(2-methoxyethyl)amino]-4-methyl-1,3-thiazol-5-yl}-N-phenylpyrimidine-2-amine], for which the chromatographic logP amounted to 1.82. The chromatographic logP values of the last two molecules are within 0.2 log units of each other.

In turn, `COCCNc1nc(C)c(-c2ccnc(Nc3cc(OC)c(OC)c(OC)c3)n2)s1` [Example 679, 4-{2-[(2-methoxyethyl)amino]-4-methyl-1,3-thiazol-5-yl}-N-(3,4,5-trimethoxyphenyl)pyrimidine-2-amine] had a chromatographic logP of 1.74. The chromatographic logP values of the last two molecules are within 0.2 log units of each other.

Consider `COCCNc1nc(C)c(-c2ccnc(Nc3cccc(Cl)c3)n2)s1` [Example 680, N-(3-chlorophenyl)-4-{2-[(2-methoxyethyl)amino]-4-methyl-1,3-thiazol-5-yl}pyrimidine-2-amine], for which the chromatographic logP turned out to be 2.28.

Molecule `COCCNc1nc(C)c(-c2ccnc(Nc3cccc(OC)c3)n2)s1` [Example 681, 4-{2-[(2-methoxyethyl)amino]-4-methyl-1,3-thiazol-5-yl}-N-(3-methoxyphenyl)pyrimidine-2-amine] returned a chromatographic logP of 1.86.

`COCCNc1nc(C)c(-c2ccnc(Nc3cccc(NC(C)=O)c3)n2)s1` [Example 682, N-{3-[(4-{2-[(2-methoxyethyl)amino]-4-methyl-1,3-thiazol-5-yl}pyrimidin-2-yl)amino]phenyl}acetamide] showed a chromatographic logP of 1.36.

`COCCNc1nc(C)c(-c2ccnc(Nc3ccc(NC(C)=O)cc3)n2)s1` [Example 683, N-{4-[(4-{2-[(2-methoxyethyl)amino]-4-methyl-1,3-thiazol-5-yl}pyrimidin-2-yl)amino]phenyl}acetamide] showed a chromatographic logP of 1.35.

In the case of `CNc1nc(C)c(-c2ccnc(Nc3cccc(NC(C)=O)c3)n2)s1` [Example 684, N-[3-({4-[4-methyl-2-(methylamine)-1,3-thiazol-5-yl]pyrimidin-2-yl}amino)phenyl]acetamide], the logP was 1.26*.

With `CC(=O)c1cccc(Nc2nccc(-c3sc(N(C)C)nc3C)n2)c1` [Example 685, 1-[3-({4-[2-(dimethylamine)-4-methyl-1,3-thiazol-5-yl]pyrimidin-2-yl}amino)phenyl]ethanone], the logP was 1.89*.

In the case of `Cc1nc(N(C)C)sc1-c1ccnc(Nc2cccc([N+](=O)[O-])c2)n1` [Example 686, 4-[2-(dimethylamine)-4-methyl-1,3-thiazol-5-yl]-N-(3-nitrophenyl)pyrimidine-2-amine], the logP was 2.34*.

Turning to `Cc1nc(N(C)C)sc1-c1ccnc(Nc2cccc(Cl)c2)n1` [Example 687, N-(3-chlorophenyl)-4-[2-(dimethylamine)-4-methyl-1,3-thiazol-5-yl]pyrimidine-2-amine], the logP is listed as 2.62*.

`Cc1nc(N(C)C)sc1-c1ccnc(Nc2ccccc2)n1` [Example 688, 4-[2-(dimethylamine)-4-methyl-1,3-thiazol-5-yl]-N-phenylpyrimidine-2-amine]: the logP is 1.98*.

`COCCNc1nc(C)c(-c2ccnc(Nc3cccc(C(C)=O)c3)n2)s1` [Example 689, 1-{3-[(4-{2-[(2-methoxyethyl)amino]-4-methyl-1,3-thiazol-5-yl}pyrimidin-2-yl)amino]phenyl}ethanone] gave a chromatographic logP of 1.69.

In the case of `COCCNc1nc(C)c(-c2ccnc(Nc3cccc(O)c3)n2)s1` [Example 690, 3-[(4-{2-[(2-methoxyethyl)amino]-4-methyl-1,3-thiazol-5-yl}pyrimidin-2-yl)amino]phenol], the chromatographic logP stood at 1.38.

As to `COCCNc1nc(C)c(-c2ccnc(Nc3ccc(NS(C)(=O)=O)cc3)n2)s1` [Example 691, N-{4-[(4-{2-[(2-methoxyethyl)amino]-4-methyl-1,3-thiazol-5-yl}pyrimidin-2-yl)amino]phenyl}methanesulphonamide], the chromatographic logP came to 1.39.

Values taken from patent publication US20090030024A1, “THIAZOLES AS FUNGICIDES” (priority 2005, published 2009).
